Key:
OGT in CHO cells = experiment: Immunoblotting of global O-GlcNAcylation (RL2) in CHO cells; type: cell-based, Chinese hamster
Protocol: (§1) In vivo inhibition of glycosylation: For all immunoblotting experiments, CHO-K1 (CHO) cells were grown in F12-K media supplemented with 10% FBS and antibiotics at 37° C. in a 5% CO2 incubator. Cells were treated by adding indicated inhibitor in DMSO vehicle (0.5% final vehicle concentration) upon reaching 70% confluence. After indicated treatment length, cells were harvested by aspirating growth media and washing with ice cold 1× PBS. Cells were subsequently lysed in boiling 1% SDS/20 mM HEPES 7.9. After cooling to room temperature, 1 mM PMSF, 10 μM PUGNAC, 10 μM TMG and 1× Complete protease inhibitor cocktail were added to the solution. The mixture was sonicated and then subjected to a 5 minute incubation at 95° C. The samples were centrifuged for 15 minutes at 20,000×g and the supernatant was collected and the total protein was measured by BCA assay (BIO-RAD).
The sample was separated by SDS-PAGE (Bio-Rad 4-15%, Cat: 345-0028), transferred to a nitrocellulose membrane (iBlot, Invitrogen) and probed with the indicated antibody. Tyipcally, membranes were blocked with 4% BSA in 1× TBS+0.04% tween-20 for 1 hour before incubating with antibody (typically diluted 1:1000 in 4% BSA inlx TBS+0.04% tween-20) overnight at 4° C. Membranes were then washed three times with 1× TBS+0.04% tween-20 and incubated with secondary antibody (typically diluted 1:5000 in 4% BSA in 1× TBS+0.04% tween-20) for 1 hour at room temperature. Lastly, membranes were washed 3× with 1× TBS+0.04% tween-20 and imaged with ECL. D283-Med cells were treated as above but grown in F12-K media supplemented with 10% FBS and antibiotics. HEK, HeLa and LNCaP cells were treated as above but grown in RPMI media supplemented with 10% FBS and antibiotics.

ncOGT = molecular target: T1, ncOGT (Homo sapiens, UniProt O15294); experiment: Radiometric capture assay with Nup62 acceptor and UDP-14C-GlcNAc; type: biochemical
T1 construct: full length human OGT (ncOGT); made in house
T1 sequence (O15294 1-1046): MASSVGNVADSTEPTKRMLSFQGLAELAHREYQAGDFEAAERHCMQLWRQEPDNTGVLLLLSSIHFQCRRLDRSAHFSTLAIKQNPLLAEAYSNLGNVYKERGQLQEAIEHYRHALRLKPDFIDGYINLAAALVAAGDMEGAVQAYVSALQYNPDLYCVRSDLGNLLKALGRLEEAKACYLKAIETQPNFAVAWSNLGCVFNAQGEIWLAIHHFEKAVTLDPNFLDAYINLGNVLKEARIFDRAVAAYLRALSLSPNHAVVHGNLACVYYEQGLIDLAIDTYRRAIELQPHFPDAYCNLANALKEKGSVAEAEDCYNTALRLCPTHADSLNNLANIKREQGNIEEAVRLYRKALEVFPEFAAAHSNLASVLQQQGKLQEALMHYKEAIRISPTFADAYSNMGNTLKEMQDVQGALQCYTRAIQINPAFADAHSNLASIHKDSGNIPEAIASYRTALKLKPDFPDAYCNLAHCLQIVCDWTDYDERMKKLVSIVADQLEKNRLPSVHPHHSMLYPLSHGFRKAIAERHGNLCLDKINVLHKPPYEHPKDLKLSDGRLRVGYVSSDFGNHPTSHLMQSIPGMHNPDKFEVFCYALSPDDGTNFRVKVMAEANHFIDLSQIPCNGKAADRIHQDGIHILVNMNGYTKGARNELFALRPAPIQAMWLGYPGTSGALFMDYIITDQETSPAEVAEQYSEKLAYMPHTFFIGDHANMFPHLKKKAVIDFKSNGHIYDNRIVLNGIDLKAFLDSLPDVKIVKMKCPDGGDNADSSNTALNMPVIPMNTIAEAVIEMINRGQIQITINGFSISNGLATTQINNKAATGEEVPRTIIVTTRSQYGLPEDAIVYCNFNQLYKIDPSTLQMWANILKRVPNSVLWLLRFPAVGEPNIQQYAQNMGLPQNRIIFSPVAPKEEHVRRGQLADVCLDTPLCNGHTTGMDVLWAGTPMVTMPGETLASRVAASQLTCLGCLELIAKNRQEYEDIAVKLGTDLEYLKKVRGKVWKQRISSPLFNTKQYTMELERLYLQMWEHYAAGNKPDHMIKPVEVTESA
Protocol: Radiometric capture assay: Nucleoporin 62 (Nup62) was used as a model substrate. IC50 values of the both inhibitors were determined at range of 0 to 100 μM (eight point, duplicate). OGT antagonists were tested in a reaction mixture containing 18 μM Nup62, 6 μM UDP-^14C-GlcNAc, 100 nM ncOGT, and lx phosphate-buffered saline (1× PBS) (137 mM NaCl, 2.7 mM KCl, 10 mM Na2HPO4, and 1.8 mM KH2PO4, pH 7.4). The Nup62 glycosylation reactions were run for 15 min at 37° C. Reaction mixtures were subsequently quenched by spottinged on Whatman® Protran® nitrocellulose membrane, washed with 1× PBS three times for 15 minutes each. The membranes were air dried and then counted by liquid scintillation counting. The data were analyzed by Microsoft® Excel and Prism 6 (Graphpad®). Robust non-linear variable slope regressions were generated to determine the IC50 and Hill slope values.
In order to evaluate the mode of inhibition of OSMI-1 and UDP-5S-GlcNAc, a series of experiments, as outlined above, were performed with Nup62 as glycosylation substrate. The inhibition test of OSMI-1 was performed by varying the UDP-^14C-GlcNAc concentration from 0 to 0.25 mM while holding concentration of Nup62 constant at 10 μM with four different concentrations of OSMI-1 (0 to 2 μM) in 1× PBS with 100 nM ncOGT and with fixed and saturating concentrations of GST-Nup62 acceptor. The inhibition test of UDP-5S-GlcNAc was performed by varying the UDP-^14C-GlcNAc concentration from 0 to 1 mM while holding concentration of Nup62 constant at 10 μM with five different concentrations of UDP-5S-GlcNAc (0, 1, 5, 10, and 15 μM) in 1× PBS with 100 nM ncOGT. Each reaction was spotted on Whatman® grade P81 ion exchange chromatography paper circles, washed with 1× PBS three times for 15 minutes each. The membranes were air dried and then counted by liquid scintillation counting. Each assay was duplicated in parallel. The data were analyzed by Microsoft® Excel and Prism 6 (Graphpad®). The Michaelis-Menten plots and Ki of both inhibitors calculated under non-linear regression with competitive inhibition mode are shown in FIG. 5.

[1] = tested on: CHO, HEK-293, HeLa and D283-Med cells; experiment: Immunoblotting of global O-GlcNAcylation in various mammalian cell types; type: cell-based; settings: 50 μM, 24 hours
Protocol: as §1
The sample was separated by SDS-PAGE (Bio-Rad 4-15%, Cat: 345-0028), transferred to a nitrocellulose membrane (iBlot, Invitrogen) and probed with the indicated antibody. Tyipcally, membranes were blocked with 4% BSA in 1× TBS+0.04% tween-20 for 1 hour before incubating with antibody (typically diluted 1:1000 in 4% BSA inlx TBS+0.04% tween-20) overnight at 4° C. […]

COc1ccccc1[C@@H](NS(=O)(=O)c1ccc2[nH]c(=O)ccc2c1)C(=O)N(Cc1ccco1)Cc1cccs1 [OSMI-1, (R)—N-(furan-2-ylmethyl)-2-(2-methoxyphenyl)-2-(2-oxo-1,2-dihydroquinoline-6-sulfonamido)-N-(thiophen-2-ylmethyl)acetamide]
Onset of reduction of global O-GlcNAcylation (OGT in CHO cells; 50 μM, 8-hour time course): within two hours | Concentration of maximal reduction of global O-GlcNAcylation (OGT in CHO cells; 24 hr, 10-100 μM tested): 50 µM | IC50 (ncOGT; 6 μM UDP-GlcNAc, 18 μM GST-Nup62): 3 µM | Ki (ncOGT; non-linear regression, competitive inhibition fit, Nup62 substrate, read-out: Inhibition constant (Ki)): 0.4 µM | Global O-GlcNAc levels in four cell lines [1]: reduce global O-GlcNAc levels in all four lines examined
